{"source": "patent US5663207A", "about": "“Gem-dichlorocyclopropanes as antitumor agents” (priority 1995, dated 1997)", "key": {"[1]": {"target": "T1, estrogen receptor (Rattus norvegicus, UniProt P06211)", "T1 construct": "ovariectomized rat uterine cytosolic estrogen receptor preparation; from tissue; host or cells: uterine cytosol of ovariectomized Sprague-Dawley rats (immature rats from Sasco are named as uterus source, mature ovariectomized rats)", "T1 sequence (P06211 1-600)": "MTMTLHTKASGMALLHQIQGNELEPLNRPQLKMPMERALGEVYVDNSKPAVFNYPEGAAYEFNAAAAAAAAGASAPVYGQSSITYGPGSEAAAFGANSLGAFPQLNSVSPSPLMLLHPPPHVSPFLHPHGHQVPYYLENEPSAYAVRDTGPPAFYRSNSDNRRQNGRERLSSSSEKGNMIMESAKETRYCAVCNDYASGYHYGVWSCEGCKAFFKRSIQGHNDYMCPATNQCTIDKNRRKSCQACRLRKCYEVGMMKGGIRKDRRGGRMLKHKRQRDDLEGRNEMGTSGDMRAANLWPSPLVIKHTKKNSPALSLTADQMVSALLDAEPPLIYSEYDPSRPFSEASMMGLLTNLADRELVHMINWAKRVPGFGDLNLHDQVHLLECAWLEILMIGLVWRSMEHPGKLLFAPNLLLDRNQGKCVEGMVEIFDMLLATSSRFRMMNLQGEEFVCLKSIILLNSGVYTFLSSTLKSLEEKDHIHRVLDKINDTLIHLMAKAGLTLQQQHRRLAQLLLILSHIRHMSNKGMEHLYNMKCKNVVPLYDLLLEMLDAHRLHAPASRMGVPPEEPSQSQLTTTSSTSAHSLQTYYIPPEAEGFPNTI", "assay": "Receptor binding assay: displacement of [3H]-estradiol from rat uterine cytosol", "parameters": "species or system rat (Sprague-Dawley)", "settings": "for RBA (relative binding affinity): relative to estradiol = 100%, average of duplicate determinations minus nonspecific binding", "description": "(§1) The biological evaluation of the test compounds consisted of the in vitro rat cytosolic estradiol receptor binding assay, the in vivo immature mouse uterotrophic (estrogenic) and antiuterotrophic (antiestrogenic) assays, and the in vitro suppression of the proliferation of the ER positive MCF-7 human breast cancer cell line. Estradiol (pure agonist), TAM (agonist in mice and antagonist in MCF-7), MER 25 (pure antagonist) and Analog II (antagonist in mice) were used in the assay as standards.\nVital-free immature female Swiss-Webster mice were obtained at 17-19 days of age from Sasco weighing 8-10 g, and were used in the uterotrophic and antiuterotrophic assays. Immature female Sprague-Dawley rats, obtained at 17-19 days of age from Sasco, weighing 28-33 g, were used as sources of uteri for the estradiol receptor binding assay. Animals were housed in wire topped polycarbonate cages at six animals per cage, with the environment controlled at 25° C. and a 12 h light/dark cycle. The animals received a diet of Wayne Lab Blox rodent chow and tap water ad libitum.\nThe RBAs of the test compounds were determined by the displacement of [^3 H]-estradiol in vitro, as described previously (DAY, B. W., […], R. A., JAIN, P., PENTO, J. T., MOUSISSIAN, G. K. AND MEYER, K. L. (1991), \"Synthesis and biological evaluation of a series of 1,1-dichloro-2,2,3-triarylcyclopropanes as pure antiestrogens\", Journal of Medicinal Chemistry, 34, 842; KORENMAN, S. G. (1969), \"Comparative binding affinity of estrogens and its relation to estrogenic potency\", Steroid, 13, 163). Mature female Sprague-Dawley rats were ovariectomized at least two weeks prior to the receptor binding experiment. Each test compound was assayed at three concentrations in duplicate over a range of 10^-3 -10^-5 M and 10^-6 -10^-8 M for the estradiol standard. The non-specific binding was determined by a parallel incubation of each compound with the addition of diethylstilbestrol to give a final concentration of 2×10^-5 M DES which was sufficient to saturate all the estrogen receptors present in the cytosolic fraction. Specific displacement for each compound was determined by subtraction of nonspecific displacement from total displacement. The [^3 H]-estradioldisplacement curve for each test compound was determined by linear repression analysis and plotted graphically. The relative binding affinity for each compound was calculated (BLISS, C.I. (1967), \"The statistics in biology\", McGraw Hill, Inc: New York).\n^a Determined by competitive radiometric binding assay with rat\nuterine cytosol as a source of receptor, [^3 H]estradiol as tracer,\nand dextrancoated charcoal as absorbant for free ligand.\n^c Binding affinities are expressed relative to that of estradiol =\n100% (RBA = relative binding affinity) and are the average of duplicate\ndeterminations minus nonspecific binding.\nThe relative binding affinities (RBAs), as determined by the competitive radiometric binding assay and measured by [^3 H]-estradiol displacement from the ovariectomized rat uterine cytosolic estrogen receptor preparation, after subtracting non-specific receptor binding, were calculated for all of the synthesized target compounds, TAM, MER 25, Analog II, and estradiol. The displacement curves were plotted as percent receptor-bound [^3 H]-estrodiol versus concentration of test compounds (not shown) and the receptor binding affinity of each compound is presented in Table II."}, "[2]": {"test_system": "MCF-7 human breast cancer cells", "assay": "In vitro MCF-7 human breast cancer cell growth inhibition assay", "assay_type": "cell-based", "settings": "for inhibition at 1 µM: Homo sapiens", "description": "as §1\nMCF-7 (estrogen-receptor positive) human breast cancer cells (obtained from the Michigan Cancer Foundation, Detroit, Mich.) were grown at 37° C. in 75 cm^2 tissue culture (T-75) flasks, as monolayer cultures in RPMI 1640 phenol red-free media supplemented with 2 mM L-glutamine, gentamicin (50 μg/mL), penicillin (100 units/mL), streptomycin (100 μg/mL ) and calf serum (5%). Cultures were grown in an incubator 37° C. in a humid 5% CO2 atmosphere, and fed on alternate days. Expotential growth was maintained by subculturing at eight day intervals when the cells per T-75 flask reached 10 to 12×10^6 cells. Cells were trypsinized, washed and plated in multiwell plates at a density of 5×10^4 cells/well in 3 mL of RPMI 1640 media. The cells were allowed to attach and were in logarithmic growth when the test compounds were added. The test compounds (10^-6 M) in the presence or absence of a 10-fold lower dose of estradiol were dissolved in a polyethylene glycol 400: ethanol (55:45) mixture and added in the culture media in duplicate. Control samples received vehicle alone at the same concentration used in the treatment groups. The final concentration of the vehicle mixture was 0.1% of the incubation media. Cell growth was measured on alternate days using the hemocytometric trypan blue exclusion method. Percent inhibition of MCF-7 cells was calculated as the ratio of the control mean cell count per well minus the treatment group mean cell count per well to the control mean cell count per well, multiplied by 100.\n^b % MCF7 inhibition was calculated as follows: […]\nThirteen compounds, Analog II, TAM, and MER 25 were tested for their antiproliferative activity in the MCF-7 human breast cancer cell line (Table II). Compounds were tested at a concentration of 10^-6 M in the presence or absence of 10^-7 M estradiol to assess their ability to alter the growth of the calls (Table II). The 10^-6 M concentration was selected since it was reported that the inhibition of the MCF-7 cells by antiestrogens and TAM occurred either at that concentration or less, and were both selective and estrogen receptor specific. Concentrations of antiestrogens greater than 5×10^-6 M were reported to have nonspecific cytotoxic effects (BRIAND, P. AND […], A. E. (1984), \"Effect of estrogen and antiestrogen on the human breast cancer cell line MCF-7 adapted to growth at low serum concentration\", Cancer Research, 44, 1114)."}}, "note": "“Also recorded” adds a separate entry of the source. Read-outs that look alike come from different tables or passages of the source.", "data": [{"compound": "CC(=O)Oc1ccc([C@H]2[C@@H](c3ccccc3)C2(Cl)Cl)cc1", "note": "(relative stereo) [Compound 10, 1,1-Dichloro-cis-2-(p-acetoxyphenyl)-3-phenylcyclopropane]", "values": [{"measurement": "RBA (relative binding affinity)", "setting": "[1]", "result": 0.07, "unit": "%"}, {"measurement": "effect on MCF-7 cell growth (in words)", "setting": "[2]; 10^-6 M", "result": "inhibited cell growth"}, {"measurement": "inhibition at 1 µM", "setting": "[2]; MCF7, 10^-6 M, versus control mean cell count, read-out: MCF-7 Inhibition", "result": 32, "unit": "%"}]}, {"compound": "Oc1ccc(C2(c3ccc(O)cc3)C(Cl)(Cl)C23CCCCC3)cc1", "note": "[Compound 30, 1,1-Dichloro-2,2-bis-(p-hydroxyphenyl)-spiro[2.5]octane]", "values": [{"measurement": "RBA ranking (in words)", "setting": "[1]; among the compounds tested", "result": "comparable to tamoxifen; also recorded: the highest"}, {"measurement": "RBA (relative binding affinity)", "setting": "[1]", "result": 0.62, "unit": "%"}, {"measurement": "effect on MCF-7 cell growth (in words)", "setting": "[2]; 10^-6 M", "result": "active inhibitors of cell growth"}, {"measurement": "reversal of growth inhibition by estradiol (in words)", "setting": "[2]; 10^-7 M estradiol", "result": "reversed by 10^-7 M estradiol"}, {"measurement": "inhibition at 1 µM", "setting": "[2]; MCF7, read-out: MCF-7 Inhibition", "result": 21.3, "unit": "%"}, {"measurement": "effect on estradiol-induced cell growth (in words)", "setting": "[2]; with 10^-7 M estradiol", "result": "enhanced estradiol-induced cell growth above the control"}]}]}
